What all share (assay type): cell-based
For one data set, the system named is HBeAg. Briefly: PHH HBV natural infection assay, HBeAg (alphalisa). The following applies: Hepatitis B virus, Hepatocyte, 72 h, read-out: HbeAg IC50. The method, then:
(§1) Detailed procedures regarding primary human hepatocyte (PHH) HBV natural infection assay are described as below. One tube of frozen PHH (10 million cells) is thawed in 37° C. water bath and then transferred to 20 mL of PHH thawing medium (Sigma, InVitroGRO HT Medium, Cat. S03319) with gently mixing. The cells were then centrifuged at […] for 5 min, the supernatant was discarded and the tube was refilled with 25 mL of PHH plating medium (Sigma, InVitroGRO CP Medium, Cat. 503317). The tube was shaken very gently to re-suspend all cells. 50 μl of cells were transferred to each well 384-well collagen I coated plate with appropriate liquid handling equipment, e.g. Integra VIAFLO384 or Agilent Bravo. The cells were then cultured for 24 hours in a cell incubator. For HBV infection, after PHH attachment on the culture plate, the plating medium was removed and replenished with PHH culture medium containing HBV virus. The PHH culture medium was prepared with Dulbecco's Modified Eagle Medium (DMEM)/F12 (1:1 in volume ratio) containing 10% fetal bovine serum (Gibco, Cat. 10099141), […] (Gibco, Cat. PHG03I1L), 20 ng/mL dexamethasone (Sigma, Cat. D4902-100 mg), 250 ng/mL human recombinant insulin (Gibco, Cat. 41400045) and 100 U/mL penicillin. HBV virus at 200 genome equivalent (GE) per cell with 4% PEG8000 (Sigma, Cat. P1458) containing culture medium were added to the PHH culture medium for infection. The cells were then cultured for 24 hours in cell incubator. Then the cell culture supernatant was removed. The HBV-infected PHH were cultured with sandwich culture method with PHH culture medium containing 1% DMSO and 0.25 mg/mL matrix gel for 72 hours. The supernatant was then refreshed with PHH culture medium containing different concentrations of testing compounds for two times with 72-hour interval. At the end of treatment, the supernatant was collected for viral markers measurements, including HBsAg, HBeAg, HBV DNA and cytotoxicity. HBsAg and HBeAg were detected using alphalisa method using their specific antibodies. For HBV DNA detection, HBV DNA Quantitative Fluorescence Diagnostic Kit (Sansure Biotech Inc.) was used following the manufacture's protocol. Cytotoxicity was determined using Cell Counting Kit-8 (CCK8, Dojindo Molecular Technologies, Inc.).
(§2) The compounds of the present invention were tested for their capacity to inhibit HBsAg and HBeAg as described herein.
A general note: Bead proximity is the source of the signal in Alpha formats.

A short description of data set [1]: Cytotoxicity in PHH natural infection assay (Cell Counting Kit-8). As to conditions: HBV-infected primary human hepatocytes, CCK8. The method, then:
as §1
On the technique in general: Tetrazolium dyes change colour on reduction, which living cells bring about.

The next data set relates to HBsAg. Briefly: PHH HBV natural infection assay, HBsAg (alphalisa). The following applies: Hepatitis B virus, Hepatocyte, 72 h, read-out: HBsAg IC50. Here is the method: as §1, §2

A value given as a limit tells only on which side of the number the result lay.

One may read the IC50 as the midpoint of a concentration-inhibition curve. A word on the CC50: it is the concentration at which the toxic effect on the cells reaches its halfway point. Lower therefore signals greater toxicity to the cells. As to `CS(=O)(=O)c1cccc(C(=O)NC23CC(c4nc5cc(Cl)ccc5o4)(C2)C3)c1` [Example 22, N-[3-(5-chloro-1,3-benzoxazol-2-yl)-1-bicyclo[1.1.1]pentanyl]-3-methylsulfonyl-benzamide], the IC50 amounted to 2.33 µM with HBeAg and 3 µM in the data set on HBsAg. In data set [1], this compound yielded a CC50 at 144 h of more than 100 µM.

Take `CS(=N)(=O)Cc1ccc(C(=O)NC23CC(c4nc5ccc(Cl)cc5o4)(C2)C3)o1` (stereo not drawn) [Example 40, N-[3-(6-chloro-1,3-benzoxazol-2-yl)-1-bicyclo[1.1.1]pentanyl]-5-[(methylsulfonimidoyl)methyl]furan-2-carboxamide]: the IC50 with HBeAg turned out to be 4.07 µM; in the data set on HBsAg it was 6.99 µM. In data set [1], the CC50 at 144 h is more than 100 µM.

For the compound `O=C(NC12CC(c3nc4ccc(Cl)cc4o3)(C1)C2)c1ccc(S(=O)(=O)C2CC2)o1` [Example 33, N-[3-(6-chloro-1,3-benzoxazol-2-yl)-1-bicyclo[1.1.1]pentanyl]-5-cyclopropylsulfonyl-furan-2-carboxamide], the IC50 turned out to be 0.58 µM with HBeAg and 0.792 µM in the data set on HBsAg. Further, the CC50 at 144 h in data set [1] was more than 100 µM.

In the case of `C[S@](=N)(=O)c1ccc(C(=O)NC23CC(c4nc5cc(Cl)ccc5o4)(C2)C3)o1` [Example 12-b, N-[3-(5-chloro-1,3-benzoxazol-2-yl)-1-bicyclo[1.1.1]pentanyl]-5-[(S)-methylsulfonimidoyl]furan-2-carboxamide], the IC50 in the data set with HBeAg amounted to 1.01 µM; in the data set with HBsAg, 2.19 µM. The compound also came in with a CC50 at 144 h in data set [1] of more than 100 µM.

On to `O=C(NC12CC(c3nc4cc(Cl)ccc4o3)(C1)C2)c1cnc(C(F)(F)F)nc1` [Example 26, N-[3-(5-chloro-1,3-benzoxazol-2-yl)-1-bicyclo[1.1.1]pentanyl]-2-(trifluoromethyl)pyrimidine-5-carboxamide], for which the IC50 turned out to be 3.67 µM with HBeAg and 6.29 µM in the data set on HBsAg. The CC50 at 144 h in data set [1] turned out to be 88.2 µM.

Regarding `CS(=O)(=O)Cc1ccc(C(=O)NC23CC(c4nc5cnc(Cl)cc5o4)(C2)C3)o1` [Example 43, N-[3-(6-chlorooxazolo[4,5-c]pyridin-2-yl)-1-bicyclo[1.1.1]pentanyl]-5-(methylsulfonylmethyl)furan-2-carboxamide], the figures for the IC50 with HBeAg and in the data set on HBsAg were 5.55 µM and 7.62 µM, respectively. The compound also had a CC50 at 144 h in data set [1] of more than 10 µM.

On to `NS(=O)(=O)Cc1ccc(C(=O)NC23CC(c4nc5cc(Cl)ccc5o4)(C2)C3)o1` [Example 18, N-[3-(5-chloro-1,3-benzoxazol-2-yl)-1-bicyclo[1.1.1]pentanyl]-5-(sulfamoylmethyl)furan-2-carboxamide], for which the IC50 in the data set with HBeAg was determined as 3.7 µM; in the data set on HBsAg it was 4.96 µM. In data set [1], this compound registered a CC50 at 144 h of more than 100 µM.

On to `O=C(NC12CC(c3nc4cc(Cl)ccc4o3)(C1)C2)C1CC2(C1)CS(=O)(=O)C2` [Example 30, N-[3-(5-chloro-1,3-benzoxazol-2-yl)-1-bicyclo[1.1.1]pentanyl]-2,2-dioxo-2lambda6-thiaspiro[3.3]heptane-6-carboxamide], for which the half-maximal inhibitory concentration (IC50) stood at 7.77 µM in the data set with HBeAg and 9.82 µM in the data set with HBsAg. The same compound showed a CC50 at 144 h in data set [1] of more than 100 µM.

Take `CSc1ccc(C(=O)NC23CC(c4nc5cc(Cl)ccc5o4)(C2)C3)o1` [Example 3, N-[3-(5-chloro-1,3-benzoxazol-2-yl)-1-bicyclo[1.1.1]pentanyl]-5-methylsulfanyl-furan-2-carboxamide]: the IC50 is 3.83 µM with HBeAg and 8.05 µM in the data set with HBsAg. Moreover, the cytotoxic concentration (CC50) at 144 h in data set [1] was more than 100 µM.

Take `O=C(NC12CC(c3nc4cc(Cl)ccc4o3)(C1)C2)c1cc(Cl)ccc1Cl` [Example 28, 2,5-dichloro-N-[3-(5-chloro-1,3-benzoxazol-2-yl)-1-bicyclo[1.1.1]pentanyl]benzamide]: the IC50 amounted to 10.1 µM with HBeAg and 9.97 µM in the data set on HBsAg. Also, in data set [1], the CC50 at 144 h is more than 100 µM.

Turning to `CS(=N)(=O)c1ccc(C(=O)NC23CC(c4nc5ccc(Cl)cc5o4)(C2)C3)o1` (stereo not drawn) [Example 35, N-[3-(6-chloro-1,3-benzoxazol-2-yl)-1-bicyclo[1.1.1]pentanyl]-5-(methylsulfonimidoyl)furan-2-carboxamide], the IC50 with HBeAg was determined as 3.51 µM; in the data set with HBsAg, 4.29 µM. This compound came in with a half-maximal cytotoxic concentration (CC50) at 144 h in data set [1] of more than 100 µM.

`O=C(NC12CC(c3nc4ccc(Cl)cc4o3)(C1)C2)c1ccnc(S(=O)(=O)C2CC2)c1` [Example 38, N-[3-(6-chloro-1,3-benzoxazol-2-yl)-1-bicyclo[1.1.1]pentanyl]-2-cyclopropylsulfonyl-pyridine-4-carboxamide]: the IC50 with HBeAg was determined as 4.48 µM; in the data set with HBsAg, 6.65 µM. This compound also returned a CC50 at 144 h in data set [1] of more than 10 µM.

For `CS(=O)(=O)c1ccc(C(=O)NC23CC(c4nc5cc(Cl)ccc5o4)(C2)C3)o1` [Example 1, N-[3-(5-chloro-1,3-benzoxazol-2-yl)-1-bicyclo[1.1.1]pentanyl]-5-methylsulfonyl-furan-2-carboxamide], the IC50 in the data set on HBeAg came out at 1.77 µM; with HBsAg it was 2.17 µM. The CC50 at 144 h in data set [1] is more than 100 µM.

Regarding `O=C(CN1CCCCS1(=O)=O)NC12CCC(c3nc4cc(Cl)ccc4o3)(CC1)CC2` [Example 55, N-[4-(5-chloro-1,3-benzoxazol-2-yl)-1-bicyclo[2.2.2]octanyl]-2-(1,1-dioxothiazinan-2-yl)acetamide], the values for the IC50 in the data set with HBeAg and in the data set on HBsAg were 0.888 µM and 2.06 µM, respectively. In data set [1], the CC50 at 144 h was more than 100 µM.

Take `N=S(=O)(CC1CC1)c1ccc(C(=O)NC23CC(c4nc5cc(Cl)ccc5o4)(C2)C3)o1` (stereo not drawn) [Example 13, N-[3-(5-chloro-1,3-benzoxazol-2-yl)-1-bicyclo[1.1.1]pentanyl]-5-(cyclopropylmethylsulfonimidoyl)furan-2-carboxamide]: the concentration for half-maximal inhibition (IC50) with HBeAg worked out at 0.995 µM; in the data set on HBsAg, 0.95 µM. This compound returned a CC50 at 144 h in data set [1] of more than 100 µM.

Turning to `CS(=O)(=O)c1ccc(C(=O)NC23CCC(c4nc5cc(Cl)ccc5o4)(CC2)C3)o1` [Example 46, N-[4-(5-chloro-1,3-benzoxazol-2-yl)norbornan-1-yl]-5-methylsulfonyl-furan-2-carboxamide], the IC50 in the data set with HBeAg came out at 4.48 µM; with HBsAg it was 7.15 µM. In data set [1], the CC50 at 144 h was found to be 76.6 µM.

For the compound `CS(=N)(=O)Cc1ccc(C(=O)NC23CC(c4nc5cc(Cl)ccc5o4)(C2)C3)o1` (stereo not drawn) [Example 17, N-[3-(5-chloro-1,3-benzoxazol-2-yl)-1-bicyclo[1.1.1]pentanyl]-5-[(methylsulfonimidoyl)methyl]furan-2-carboxamide], the IC50 in the data set on HBeAg amounted to 2.19 µM; in the data set with HBsAg it was 3.25 µM. Also, in data set [1], the CC50 at 144 h was more than 100 µM.

Take `O=C(NC12CC(c3nc4cc(Cl)ccc4o3)(C1)C2)c1ccc([S+]([O-])CC2CC2)o1` (stereo not drawn) [Example 6, N-[3-(5-chloro-1,3-benzoxazol-2-yl)-1-bicyclo[1.1.1]pentanyl]-5-(cyclopropylmethylsulfinyl)furan-2-carboxamide]: the values for the concentration for half-maximal inhibition (IC50) in the data set on HBeAg and in the data set with HBsAg were 1.37 µM and 2.02 µM, respectively. For the same compound, in data set [1], the cytotoxic concentration (CC50) at 144 h was more than 100 µM.

`O=C(NC12CC(c3nc4cc(Cl)ccc4o3)(C1)C2)c1cncc(C(F)(F)F)c1` [Example 24, N-[3-(5-chloro-1,3-benzoxazol-2-yl)-1-bicyclo[1.1.1]pentanyl]-5-(trifluoromethyl)pyridine-3-carboxamide]: the IC50 stood at 8.82 µM in the data set with HBeAg and 5.23 µM in the data set with HBsAg. The compound further returned a CC50 at 144 h in data set [1] of more than 100 µM.

As to `CS(=O)(=O)c1ccc(C(=O)NC23CC(c4nc5cc(Cl)ccc5o4)(C2)C3)s1` [Example 9, N-[3-(5-chloro-1,3-benzoxazol-2-yl)-1-bicyclo[1.1.1]pentanyl]-5-methylsulfonyl-thiophene-2-carboxamide], the figures for the IC50 in the data set with HBeAg and in the data set with HBsAg were 5.37 µM and 9.64 µM, respectively. In addition, the CC50 at 144 h in data set [1] was more than 100 µM.

For `O=C(NC12CCC(c3nc4cc(Cl)ccc4o3)(CC1)CC2)C1CC2(C1)CS(=O)(=O)C2` [Example 48, N-[4-(5-chloro-1,3-benzoxazol-2-yl)-1-bicyclo[2.2.2]octanyl]-2,2-dioxo-2lambda6-thiaspiro[3.3]heptane-6-carboxamide], the IC50 worked out at 1.03 µM in the data set with HBeAg and 1.71 µM in the data set with HBsAg. In data set [1], this compound yielded a CC50 at 144 h of more than 100 µM.

As to `C[S+]([O-])c1ccc(C(=O)NC23CC(c4nc5cc(Cl)ccc5o4)(C2)C3)o1` (stereo not drawn) [Example 2, N-[3-(5-chloro-1,3-benzoxazol-2-yl)-1-bicyclo[1.1.1]pentanyl]-5-methylsulfinyl-furan-2-carboxamide], the figures for the IC50 in the data set on HBeAg and in the data set on HBsAg were 2.14 µM and 6.45 µM, respectively. This compound had a CC50 at 144 h in data set [1] of more than 100 µM.

(Values after patent publication US20230286929A1, “AROMATIC BRIDGED RING AMIDE DERIVATIVES FOR THE TREATMENT AND PROPHYLAXIS OF HEPATITIS B VIRUS INFECTION” (Hoffmann-La Roche Inc., priority 2020, published 2023).)
